Experimental data taken from patent US11524934B2, “Phenylamine compounds” (PI INDUSTRIES LTD., priority 2017, dated 2022).

Assays:
Pyricularia oryzae = experiment: microbe, parasite or virus in culture; assay type: cell-based; conditions: 168 h, read-out: control
Botrytis cinerea = Botrytis cinerea (Gray mold) in vitro test, radial growth on Potato Dextrose Agar; conditions: 168 h, read-out: control
Method: (§1) Compounds of present invention were assessed for activity against one or more of the following: Biological Test Examples, in vitro test
Botrytis cinerea (Gray mold): Compounds were dissolved in 0.3% DMSO & then added to Potato Dextrose Agar medium just prior to dispensing it into Petri dishes. 5 ml medium with compound in the desired concentration was dispensed into 60 mm sterile Petri-plates. After solidification each plate was seeded with 5 mm size mycelial disc taken form periphery of actively growing virulent culture plate. Plates were incubated in growth chambers at 22° C. temperature & 90% Relative Humidity for seven days and radial growth was measured.

Colletotrichum capsici = Colletotrichum capsici (anthracnose) in vitro test, radial growth on Potato Dextrose Agar; conditions: Colletotrichum truncatum, 168 h, read-out: control
Method: Colletotrichum capsici (anthracnose): Compounds were dissolved in 0.3% DMSO & then added to Potato Dextrose Agar medium just prior to dispensing it into Petri dishes. 5 ml medium with compound in the desired concentration was dispensed into 60 mm sterile petri-plates. After solidification each plate was seeded with 5 mm size mycelial disc taken form periphery of actively growing virulent culture plate. Plates were incubated in growth chambers at 25° C. temperature & 60% Relative Humidity for seven days and radial growth was measured.

Septoria lycopersici = Septoria lycopersici (Leaf spot of tomato) in vitro test, radial growth on Potato Dextrose Agar; conditions: 168 h, read-out: control
Method: Septoria lycopersici (Leaf spot of tomato): Compounds were dissolved in 0.3% DMSO & then added to Potato Dextrose Agar medium just prior to dispensing it into Petri dishes. 5 ml medium with compound in the desired concentration was dispensed into 60 mm sterile petri-plates. After solidification each plate was seeded with 5 mm size mycelial disc taken form periphery of actively growing virulent culture plate. Plates were incubated in growth chambers at 25° C. temperature & 70% Relative Humidity for seven days and radial growth was measured.

Alternaria solani = Alternaria solani (early blight of tomato/potato) in vitro test, radial growth on Potato Dextrose Agar; conditions: 168 h, read-out: control
Method: as §1

Rhizoctonia solani = conditions: 168 h, read-out: control
Method: Rhizoctonia solani (Rice sheath blight/Potato black scurf): Compounds were dissolved in 0.3% DMSO & then added to Potato Dextrose Agar medium just prior to dispensing it into Petri dishes. 5 ml medium with compound in the desired concentration was dispensed into 60 mm sterile Petri-plates. After solidification each plate was seeded with 5 mm size mycelial disc taken form periphery of actively growing virulent culture plate. Plates were incubated in growth chambers at 25° C. temperature & 60% Relative Humidity for seven days and radial growth was measured.

Phakopsora pachyrhizi = Phakopsora pachyrhizi test in soybean (in vivo on plants), preventive activity; conditions: preventive spray on soybean plants, inoculated one day after treatment, disease severity rated vs untreated check
Method: Example 8 (In Vivo on Plants): Phakopsora pachyrhizi Test in Soybean
Compounds were dissolved in 2% DMSO/Acetone & then mixed with water to the calibrated spray volume of 50 ml and poured into the spray bottles for further applications.
To test the preventive activity of compounds, healthy young soybean plants raised in the greenhouse were sprayed with active compound preparation at the stated application rates inside the spray cabinets using hallowcone nozzles. One day after treatment, the plants were inoculated with spore suspension containing 2.1×10^6 Phakopsora pachyrhizi inoculum. The inoculated plants were then kept in greenhouse chamber at 25° C. temperature & 90% Relative Humidity for disease expression.
A visual assessment of compound's performance was carried out by rating the disease severity (0-100% scale) on treated plants on 3, 7, 10 & 15 days after application. Efficacy (% control) of the compounds was calculated by comparing the disease rating in the treatment with the one of the untreated control. The sprayed plants were also assessed for compound's plant compatibility by recording symptoms like necrosis, chlorosis & stunting.

Fusarium culmorum = Fusarium culmorum (Foot rot of cereals) in vitro test, radial growth on Potato Dextrose Agar; assay type: cell-based; conditions: 168 h, read-out: control

SMILES	inhibition of growth at 300 ppm (Pyricularia oryzae) [%]	inhibition of growth at 300 ppm (Botrytis cinerea) [%]	inhibition of growth at 300 ppm (Colletotrichum capsici) [%]	inhibition of growth at 300 ppm (Septoria lycopersici) [%]	inhibition of growth at 300 ppm (Alternaria solani) [%]	inhibition of growth at 300 ppm (Rhizoctonia solani) [%]	pest or weed control at 500 ppm (Phakopsora pachyrhizi) [%]	inhibition of growth at 300 ppm (Fusarium culmorum) [%]
CCN(C)C=Nc1cc(C)c(C(=O)COc2cccc(Br)c2)cc1C [Compound 3, N′-(4-(2-(3-bromophenoxy)acetyl)-2,5-dimethylphenyl)-N-ethyl-N-methylformimidamide]	> 70	> 70	> 70	> 70	> 70	> 70		
CCN(C)C=Nc1cc(C)c(C(=O)CSc2cccc(F)c2)cc1C [Compound 4, N-ethyl-N′-(4-(2-((3-fluorophenyl)thio)acetyl)-2,5-dimethylphenyl)-N-methylformimidamide]	> 70	> 70	> 70	> 70	> 70	> 70	> 90	
CCN(C)C=Nc1cc(C)c(C(=O)CSc2cccc(C)c2)cc1C [Compound 5, N′-(2,5-dimethyl-4-(2-(m-tolylthio)acetyl)phenyl)-N-ethyl-N-methylformimidamide]	> 70	> 70	> 70	> 70	> 70			70
CCN(C)C=Nc1cc(C)c(C(=O)CSc2cccc(Br)c2)cc1C [Compound 6, N′-(4-(2-((3-bromophenyl)thio)acetyl)-2,5-dimethylphenyl)-N-ethyl-N-methylformimidamide]	> 70	> 70	> 70	> 70	> 70	> 70	> 90	
CCN(C)C=Nc1cc(C)c(C(=O)COc2cccc(F)c2)cc1C [Compound 9, N-ethyl-N′-(4-(2-(3-fluorophenoxy)acetyl)-2,5-dimethylphenyl)-N-methylformimidamide]	> 70	> 70	> 70	> 70	> 70	> 70	> 90	
CCN(C)C=Nc1cc(C)c(C(=O)COc2ccc(C)cc2)cc1C [Compound 15, N′-(2,5-dimethyl-4-(2-(p-tolyloxy)acetyl)phenyl)-N-ethyl-N-methylformimidamide]	> 70	> 70	> 70	> 70	> 70	> 70	> 90	
CCN(C)C=Nc1cc(C)c(C(=O)CSc2cccc(OC)c2)cc1C [Compound 27, N-ethyl-N′-(4-(2-((3-methoxyphenyl)thio)acetyl)-2,5-dimethylphenyl)-N-methylformimidamide]	> 70	> 70	> 70	> 70	> 70	> 70		
CCN(C)C=Nc1cc(C)c(C(=O)CSc2ccc(F)cc2)cc1C [Compound 28, N-ethyl-N′-(4-(2-((4-fluorophenyl)thio)acetyl)-2,5-dimethylphenyl)-N-methylformimidamide]	> 70	> 70	> 70	> 70	> 70	> 70		70
CCN(C)C=Nc1cc(C)c(C(=O)CSc2ccc(Cl)cc2)cc1C [Compound 29, N′-(4-(2-((4-chlorophenyl)thio)acetyl)-2,5-dimethylphenyl)-N-ethyl-N-methylformimidamide]	> 70	> 70		> 70	> 70	> 70		70
CCN(C)C=Nc1cc(C)c(C(=O)C(C)(C)Sc2cccc(C)c2)cc1C [Compound 83, N′-(2,5-dimethyl-4-(2-methyl-2-(m-tolylthio)propanoyl)phenyl)-N-ethyl-N-methylformimidamide]	> 70	> 70	> 70		> 70	> 70		70
CCN(C)C=Nc1cc(C)c(C(=O)CN(C)c2ccc(Cl)cc2)cc1C [Compound 84, N′-(4-(N-(4-chlorophenyl)-N-methylglycyl)-2,5-dimethylphenyl)-N-ethyl-N-methylformimidamide]	> 70	> 70	> 70	> 70	> 70	> 70		70
CCN(C)C=Nc1cc(C)c(C(=O)COc2c(Cl)cccc2Cl)cc1C [Compound 86, N′-(4-(2-(2,6-dichlorophenoxy)acetyl)-2,5-dimethylphenyl)-N-ethyl-N-methylformimidamide]	> 70	> 70	> 70		> 70	> 70		70
CCN(C)C=Nc1cc(C)c(C(=O)COc2c(C)cccc2Br)cc1C [Compound 88, N′-(4-(2-(2-bromo-6-methylphenoxy)acetyl)-2,5-dimethylphenyl)-N-ethyl-N-methylformimidamide]	> 70	> 70	> 70	> 70	> 70	> 70		70
CCN(C)C=Nc1cc(C)c(C(=O)COc2c(C)cc(C)cc2Br)cc1C [Compound 89, N′-(4-(2-(2-bromo-4,6-dimethylphenoxy)acetyl)-2,5-dimethylphenyl)-N-ethyl-N-methylformimidamide]	> 70	> 70	> 70	> 70	> 70	> 70		
CCN(C)C=Nc1cc(C)c(C(=O)COc2c(C)cccc2Cl)cc1C [Compound 91, N′-(4-(2-(2-chloro-6-methylphenoxy)acetyl)-2,5-dimethylphenyl)-N-ethyl-N-methylformimidamide]	> 70	> 70	> 70		> 70	> 70		70
CCN(C)C=Nc1cc(C)c(C(=O)CN(C)c2ccc(C)cc2)cc1C [Compound 92, N′-(2,5-dimethyl-4-(N-methyl-N-(p-tolyl)glycyl)phenyl)-N-ethyl-N-methylformimidamide]	> 70		> 70	> 70	> 70	> 70		
CCN(C)C=Nc1cc(C)c(C(=O)CSc2ccc(F)cc2F)cc1C [Compound 102, N′-(4-(2-((2,4-difluorophenyl)thio)acetyl)-2,5-dimethylphenyl)-N-ethyl-N-methylformimidamide]	> 70	> 70	> 70	> 70	> 70	> 70		70
CCN(C)C=Nc1cc(C)c(C(=O)CSc2c(F)cccc2F)cc1C [Compound 103, N′-(4-(2-((2,6-difluorophenyl)thio)acetyl)-2,5-dimethylphenyl)-N-ethyl-N-methylformimidamide]	> 70	> 70	> 70	> 70	> 70	> 70		70
Cc1cc(C(=O)COc2ccccc2Cl)c(C)cc1N=CN(C)C [Compound 109, N′-(4-(2-(2-chlorophenoxy)acetyl)-2,5-dimethylphenyl)-N,N-dimethylformimidamide]	> 70		> 70		> 70			70
CCN(C)C=Nc1cc(C)c(C(=O)Cn2cnnc2)cc1C [Compound 114, N′-(4-(2-(4H-1,2,4-triazol-4-yl)acetyl)-2,5-dimethylphenyl)-N-ethyl-N-methylformimidamide]	> 70	> 70	> 70		> 70	> 70		70
